# Where a SMILES comes first, the peptide text is derived from it. The star is where a group is joined. X1 = CC1(C)C(=CC=C2CCCC(C=CC3=[N+](CCCCCC(=O)O)c4ccccc4C3(C)C)=C2*)N(CCCCCC(=O)O)c2ccccc21
# How the values were obtained:
# [1] = system: human bladder tumour tissues; assay: Ex vivo NIR imaging of human intact bladder after intravesical instillation; conditions: 70 mL of 50 μM in PBS pH 7.4 instilled, 37 °C, 1 h
# Description: After obtaining approval from the institutional review board of the Fourth Hospital of Harbin Medical University, patients with urothelial carcinoma were scheduled for radical cystectomy and appropriate informed consent was obtained. Fresh intact bladder was obtained from the operating room immediately after radical cystectomy and irrigated three times for 5 min via an 18-French (Fr) urinary catheter with sterile saline, and 70 mL of molecule 1 in PBS (50 μM, pH 7.4) was instilled and incubated at 37 °C for 1 h. Then, the unbound molecule 1 was removed by irrigating with sterile saline three times for 5 min, the bladder was opened longitudinally on the anterior wall. Ex vivo fluorescent and white light imaging of the bladder cancer was performed using a near infrared imaging system. To explore the correlation between appearance of fluorescent signal and cancer lesions, standard pathological analysis of represented fluorescent spots were carried out after imaging.
# [2] = system: healthy female Balb/c nude mice; assay: Toxicology evaluation (blood biochemistry, haematology, histology); assay type: in vivo, mouse; conditions: 14 mg/kg
# Description: The healthy female Balb/c nude mice (6–8 weeks, n = 3) treated with molecule 1 was systematically investigated over 15 days. The mice were sacrificed after treatment with molecule 1 at a dose of 14 mg/kg on the 3rd, 7th and 15th day for blood collection. The blood biochemistry and haematology analyses were performed by Vital River Laboratory Animal Technology Co. Ltd. The histology evaluation was performed by Servicebio. All the toxicology evaluation was carried out in blind manner. […]
# mg/kg, n=3) at 3, 7 and 15 d. The control group was healthy mice group without treatment. a, As major indicators of liver function, alanine aminotransferase (ALT), alkaline phosphatase (ALP) and aspartate aminotransferase (AST) levels were evaluated at different time point s. b, Total Protein (TP), albumin (ALB) and globulin (GLO) concentration and A/G (ALB/GLO) levels were evaluated at different time points. c, The creatinine (CRE) and blood urea nitrogen (BUN) levels, important indicators of kidney function, were evaluated at different time points. d, Time-course changes of haematology data, including i) white blood cells, ii) red blood cells, iii) haemoglobin, iv) mean corpuscular volume, v) mean corpuscular haemoglobin, vi) mean corpuscular haemoglobin concentration, vii) platelets and viii) haematocrit after treated with molecule 1 (14 mg/kg) treatment comparing with normal range (green backgrounds). Data are presented as mean ± s.d.
# (n=3). e, Histology evaluation of the major organs (liver, spleen, kidney, heart and lung) were collected from the control group without treatment and molecule 1 treated (12 h post injection) group. Scale bars, 100 μm.
# H460 and 293T cells = assay: Confocal imaging of accumulation and retention in cells, H460 versus 293T; assay type: cell-based, human; conditions: 50 μM for 1 h, washed, at 6 h (maximum difference), cytoplasm, n = 15
# Description: Fig. 3 Recognition and self-assembly of molecule 1 in cells. a Western blots of XIAP expression in H460 and 293T cells. b Confocal images of H460 cells treated with or without energy-dependent inhibitor (oligomycin A, 20 μM) for 1 h, and followed by washing with PBS and treated with the molecule 1 (50 μM) for 1 h. c Statistical analysis of average fluorescence intensities in the cytoplasm of H460 cells from confocal images. Data are presented as the mean ± s.d. (n = 100). ***p < 0.001, p values were performed with one-way ANOVA followed by post hoc Tukey’s test for the indicated comparison. d Confocal images of time-dependent monitoring of H460 and 293T cells treated with the molecule 1 (50 μM) for 1 h followed by washing with PBS and replacing the medium and a further incubation up to 48 h. e Statistical analysis of average fluorescence intensities in the cytoplasm of H460 and 293T cells from confocal images with a timescale range of 1–48 h. Data are presented as the mean ± s.d. […] Finally, incubate up to 6 h and imaging by confocal microscope. g Schematic diagram illustrates the process of NBD fluorescence illumination. h Confocal images of H460 cells treatment with molecule 1-NBD (50 μM) for 1 h. i TEM images of ultrathin section of H460 cells treated with molecule I-1 (50 μM) and without the molecule I-1 for up to 12 h. […]
smiles,measurement,setting,value
CC[C@H](C)[C@H](NC(=O)[C@@H]1CCCN1C(=O)[C@@H](NC(=O)[C@H](C)N)C(C)C)C(=O)N[C@@H](C)C(=O)N[C@@H](CCC(N)=O)C(=O)N[C@@H](CCCCN)C(=O)N[C@@H](CC(=O)O)C(=O)N[C@@H](CCC(=O)O)C(=O)N[C@H](C(=O)N[C@@H](CC(=O)O)C(=O)N[C@@H](CCCCN)C(=O)N[C@@H](CC(C)C)C(=O)N[C@H](C(=O)N[C@@H](Cc1ccccc1)C(=O)N[C@@H](Cc1ccccc1)C(=O)N[C@@H](C)C(=O)N[C@@H](CCC(=O)O)C(=O)N[C@@H](CSC1=C(C=CC2=[N+](CCCCCC(=O)O)c3ccccc3C2(C)C)CCCC1=CC=C1N(CCCCCC(=O)O)c2ccccc2C1(C)C)C(=O)NCC(=O)O)C(C)C)C(C)C [molecule 1] (H-AVPIAQKDEVDKLVFFAEC(X1)G-OH),signal-to-noise ratio of the tumour area versus surrounding normal tissue,[1],up to 2.7 times
same,histology evaluation of organs,[2],slightly enlarged splenic corpuscle and expanded germinal centres
same,signs of acute toxicity within 15 days,[2],did not notice any obvious signs of acute toxicity
same,creatinine (CRE) and blood urea nitrogen (BUN) levels,"[2]; days 3, 7 and 15, n = 3",within the normal range
same,"liver function markers (ALT, AST, ALP, albumin concentration)","[2]; days 3, 7 and 15, n = 3",within reference normal ranges
same,fluorescent intensity in H460 cells relative to 293T cells,H460 and 293T cells,fivefold higher

# From PMC6813295, “A tumour-selective cascade activatable self-detained system for drug delivery and cancer imaging” (Nature Communications, 2019)
